SMILES strings stand for the structures. Entries after “also recorded” stand apart in the source; their conditions may differ.

One experiment has as its system 45 off-target kinases. Put plainly: Specificity screen against 45 kinases (Eurofins Cerep). Type of experiment: biochemical. As to conditions: inhibition higher than 50% considered significant. The protocol: Of the 13 inhibitors, 3 were tested for cross-reactivity against 45 off-target kinases.
(§1) The difference between the TAOK2 ΔTm and that of p38 and ASK1 was determined. […] The majority of the other compounds were also preferentially inhibitory toward TAOK2. Of the 13 compounds, SW034538, SW172006 and SW083688 were cross-verified for selectivity by performing a specificity screen against 45 kinases commercially at Eurofins Cerep, Inc. (FIG. 3).

For another experiment, the system named is p38 and ASK1. Put plainly: DSF selectivity for TAOK2 over small panel of other MAPK cascade members. As to conditions: versus p38 and ASK1. Type of experiment: binding. The protocol: (§2) Differential scanning fluorimetry binding assays of selected compounds against TAOK2 were conducted to measure strength of compound binding. A solution of 5 μM TAOK2, 50 mM MgCl2, 50 mM HEPES pH 7.5, and 2.5x SyproOrange(Life Technologies) was made. Compound was added to a final concentration of 1 μM. 25 μl of the reaction solution was added to the wells of a Biorad Multiplate 96 wellclear PCR plate. The plate was covered with a Biorad Microseal ‘B’ seal. Plates were read in a Biorad CFX96 Real-Time PCR system. The temperature was increased from 4° C. to 80° C., with fluorescence measurements being taken every 0.5° C. in the 6-FAM Fluorescein channel. The fluorescence response to heat curve was fit to a binding isotherm in order to determine the inflection point, which was taken as the melt temperature (Tm).
as §1

The next experiment has as its target T1, ASK1 (Homo sapiens, UniProt Q99683).
T1 sequence (Q99683 1-1374): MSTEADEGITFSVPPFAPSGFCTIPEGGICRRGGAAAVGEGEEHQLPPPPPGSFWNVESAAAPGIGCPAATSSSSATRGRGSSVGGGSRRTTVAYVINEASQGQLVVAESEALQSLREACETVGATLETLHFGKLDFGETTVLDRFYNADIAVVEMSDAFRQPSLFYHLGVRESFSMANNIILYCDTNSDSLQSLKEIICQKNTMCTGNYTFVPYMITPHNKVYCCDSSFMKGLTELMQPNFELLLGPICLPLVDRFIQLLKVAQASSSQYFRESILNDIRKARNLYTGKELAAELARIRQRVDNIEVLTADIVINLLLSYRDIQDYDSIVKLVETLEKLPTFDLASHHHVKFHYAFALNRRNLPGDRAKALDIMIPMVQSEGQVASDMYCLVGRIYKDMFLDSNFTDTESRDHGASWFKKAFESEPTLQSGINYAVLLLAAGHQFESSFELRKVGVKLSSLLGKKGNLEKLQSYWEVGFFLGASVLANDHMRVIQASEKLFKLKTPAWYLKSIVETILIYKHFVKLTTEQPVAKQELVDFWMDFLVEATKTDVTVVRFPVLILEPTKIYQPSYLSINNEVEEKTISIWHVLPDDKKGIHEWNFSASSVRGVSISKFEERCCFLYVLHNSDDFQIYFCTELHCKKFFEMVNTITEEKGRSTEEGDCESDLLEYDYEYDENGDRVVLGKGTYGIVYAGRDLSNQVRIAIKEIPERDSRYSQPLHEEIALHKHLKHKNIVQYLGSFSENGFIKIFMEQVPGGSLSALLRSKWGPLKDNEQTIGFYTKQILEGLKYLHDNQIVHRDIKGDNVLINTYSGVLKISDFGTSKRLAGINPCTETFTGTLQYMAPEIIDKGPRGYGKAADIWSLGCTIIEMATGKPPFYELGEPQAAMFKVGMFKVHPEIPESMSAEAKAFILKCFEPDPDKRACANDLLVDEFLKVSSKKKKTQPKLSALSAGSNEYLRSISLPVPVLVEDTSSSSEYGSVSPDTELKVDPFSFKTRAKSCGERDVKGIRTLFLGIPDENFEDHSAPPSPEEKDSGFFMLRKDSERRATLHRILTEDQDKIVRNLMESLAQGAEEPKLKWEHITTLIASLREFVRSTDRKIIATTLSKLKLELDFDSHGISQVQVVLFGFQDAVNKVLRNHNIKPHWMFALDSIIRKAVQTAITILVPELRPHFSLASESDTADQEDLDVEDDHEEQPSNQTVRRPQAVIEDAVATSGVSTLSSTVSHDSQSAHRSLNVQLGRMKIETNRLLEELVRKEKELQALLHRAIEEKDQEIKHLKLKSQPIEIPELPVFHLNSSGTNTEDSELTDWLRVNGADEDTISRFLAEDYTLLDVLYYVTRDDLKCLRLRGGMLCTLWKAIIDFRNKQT
Put plainly: DSF against ASK1 (selectivity panel of MAPK cascade members). Type of experiment: binding. As to conditions: difference between the TAOK2 ΔTm and that of ASK1, DSF. The protocol: as §2, §1

For another experiment, the system named is U2OS GFP-LC3 cells. The experiment can be described thus: GFP-LC3 accumulation by flow cytometry (autophagic flux). The experiment is classed as cell-based, human. As to conditions: 50 μM, 24 hours. The protocol:
FIG. 4A) U2OS cells stably expressing the GFP-LC3 fusion transgene were treated with the indicated compound at 50 μM concentration for 24 hours before GFP fluorescence was measured by flow cytometry. The median fluorescent value from 20,000 cells per condition was normalized to that of vehicle alone (DMSO) within a given experiment. The mean+SD of >2 independent experiments is shown. ****, p<0.0001; ***, p<0.001; **, p<0.01; ns, p>0.05 versus vehicle alone (DMSO) by unpaired t test. FIG. 4B) TAOK2 inhibitors induce accumulation of p62. U2OS GFP-LC3 cells were treated with the indicated compounds at 50 μM concentration, or DMSO alone, for 24 hours. Lysates were collected and analyzed by western blot using the indicated antibodies. XPB was used as a loading control.
U2OS GFP-LC3 cells were seeded in 6-well plates at 150,000 cells per well in Dulbecco's Modified Eagle Medium supplemented with 10% fetal bovine serum. Twenty-four hours after seeding, the indicated compounds were added to a final concentration of 50 μM, or an equivalent volume of vehicle alone (DMSO) was added. Twenty-four hours after compound addition, cells were rinsed with PBS (Phosphate-Buffered Saline) and analyzed by flow cytometry using a FACS Calibur (BD Biosciences) to measure media GFP fluorescence per cell.
It had previously been determined that TAOK2 is required for autophagic flux in cancer cells. siRNA targeting TAOK2 elicited an expression response similar to siRNA targeting known autophagy genes, such as ULK1, a protein kinase involved in mTOR and AMPK signaling, in the human colon cancer cell line HCT116. TAOK2 depletion also impaired autophagic flux in human osteosarcoma cell line U2OS engineered to stably express the autophagy marker 1A/1B-light chain 3 fused to GFP (GFP-LC3), a microtubule associated protein.
Degradation of the autophagy scaffold and LC3 binding protein p62 is a second marker of autophagic flux. p62 degradation was assayed by Western blotting (FIG. 4B).
A general note: Flow cytometry measures light scatter and fluorescence of single cells or particles in a stream.

Take `CCC(=O)Nc1nc(C)c(-c2csc(Nc3cc(OC)ccc3OC)n2)s1` [SW034538]: the “specificity toward TAOK2 in screen against 45 kinases” value (shortened to “specificity toward TAOK2 in screen”) in the experiment with 45 off-target kinases is “cross-reactivity with respect to six of the 45 kinases”. Further, the “selectivity for TAOK2 according to DSF” value with p38 and ASK1 is given as “selective”. In addition, the “ΔΔTm (ASK1)” value on ASK1 amounted to 2.7 °C. The “impairment of autophagic flux (accumulation of GFP-LC3)” value (from here on “impairment of autophagic flux”) in the experiment with U2OS GFP-LC3 cells is reported as “showing inhibition; also recorded: effective”.

With `CCOCCCn1c(=S)[nH]c2cc(C(=O)NCC3COc4ccccc4O3)ccc2c1=O` (stereo not drawn) [SW083688], the “specificity toward TAOK2 in screen” value in the experiment on 45 off-target kinases is reported as “highly specific toward TAOK2”. Further, the “selectivity for TAOK2 according to DSF” value in the experiment with p38 and ASK1 was “selective”. The “ΔΔTm (ASK1)” value on ASK1 is 2.1 °C. The “impairment of autophagic flux” value with U2OS GFP-LC3 cells was “effective”.

Consider `CS(=O)(=O)c1ccc2nc(NC(=O)CCCOc3ccc(Cl)cc3)sc2c1` [SW172006], for which the “specificity toward TAOK2 in screen” value in the experiment with 45 off-target kinases was “highly specific toward TAOK2”. Further, the “selectivity for TAOK2 according to DSF” value with p38 and ASK1 is given as “selective”. Also, on ASK1, the “ΔΔTm (ASK1)” value is 1.2 °C. Also, in the experiment on U2OS GFP-LC3 cells, the “impairment of autophagic flux” value was “effective”.

The values above are taken from US20170340636A1, “COMPOSITIONS AND METHODS FOR INHIBITION OF AUTOPHAGY” (Board of Regents, The University of Texas System, priority 2016, published 2017).
